We go through 113 substances from patent US7781565B2 (priority 2006, dated 2010).

Entries after “also recorded” stand apart in the source; their conditions may differ.

This assay concerns NCI-60 cell lines. Type of assay: cell-based, human.
As for RANGVLV, the “Cell Line with which the peptide (and its tripeptide motif) is associated” value (from here on “Cell Line with which the peptide”) is reported as “H23-Lung”.
Consider SAGVSDS, for which the “Cell Line (NCI-60 cell line the peptide and its motif are associated with)” value was “SK-MEL-2 Melanoma”.
For ARVGVSP, the “Cell Line with which the peptide” value was “H322-Lung”.
In the case of HGRVHRL, the “Cell Line with which the peptide” value is given as “H23-Lung”.
As for LFHTRSS, the “Cell Line (NCI-60 cell line the peptide and its motif are associated with)” value was “IGROV1 Ovarian”.
On to GRVPTVV, for which the “Cell Line (NCI-60 cell line the peptide is associated with)” value is “KM-12C Colon”.
Consider AVGVSAA, for which the “Cell Line the peptide is associated with (peptide recovered from phage library selection on this NCI-60 cell line)” value is “MDA-MB-231 Breast”.
With LRRSSFS, the “Cell Line with which the peptide” value is “K-562-Leukemia”.
Same read-out and setting: the entry for GGSRNRW is “H226-Lung”.
Regarding RVRAVLG, the “Cell Line (NCI-60 cell line the peptide and its motif are associated with)” value is “SK-MEL-28 Melanoma”.
With LKLLSVP, the “Cell Line (NCI-60 cell line the peptide is associated with)” value is listed as “HT-29 Colon”.
As to LWFELVS, the “Cell Line the peptide is associated with (peptide recovered from phage library selection on this NCI-60 cell line)” value is “MCF-7 Breast”.
As to TSRGLRL, the “Cell Line (NCI-60 cell line the peptide and its motif are associated with)” value is recorded as “UACC 257 Melanoma”.
With TRYSLRS, the “Cell Line the peptide is associated with (peptide recovered from phage library selection on this NCI-60 cell line)” value is on record as “TK-10 Renal”.
In the case of GRLRLRV, the “Cell Line (NCI-60 cell line the peptide is associated with)” value is “SF-295 CNS”.
Regarding LRVGHAG, the “Cell Line the peptide is associated with (peptide recovered from phage library selection on this NCI-60 cell line)” value is reported as “SN12C Renal”.
As for LIGGLLS, the “Cell Line (NCI-60 cell line the peptide and its motif are associated with)” value was “SK-MEL-5 Melanoma”.
Still for that read-out and setting: the same measure for AGGFGVL: “IGROV1 Ovarian”.
With MGVLTAE, the “Cell Line (NCI-60 cell line the peptide is associated with)” value is “SNB-19 CNS; also recorded: SF-539 CNS”.
For the substance MFARGWE, the “Cell Line with which the peptide” value is “CCRF-CEM Leukemia”.
On to PVRRVSS, for which the “Cell Line the peptide is associated with (peptide recovered from phage library selection on this NCI-60 cell line)” value is “HS 578 T Breast”.
For NAASLPS, the “Cell Line with which the peptide” value was “SR Leukemia”.
As to RQTTGAV, the “Cell Line with which the peptide” value is “K-562-Leukemia”.
Consider SGGGGLG, for which the “Cell Line (NCI-60 cell line the peptide is associated with)” value was “SF-268 CNS”.
Same read-out and setting: the entry for YGESLLR is “SNB-75 CNS”.
WISAVSK: the “Cell Line (NCI-60 cell line the peptide and its motif are associated with)” value is listed as “SK-OV-3-3 Ovarian”.
On to SSGSVDS, for which the “Cell Line with which the peptide” value is “H322-Lung”.
Regarding DGEGAGL, the “Cell Line (NCI-60 cell line the peptide is associated with)” value is reported as “SNB-75 CNS”.
For the substance SGRLWVG, the “Cell Line the peptide is associated with (peptide recovered from phage library selection on this NCI-60 cell line)” value is “RXF393 Renal”.
In the case of GVRSMPV, the “Cell Line (NCI-60 cell line the peptide is associated with)” value is “LOX-IMVI Melanoma”.
Turning to FPAVSTE, the “Cell Line the peptide is associated with (peptide recovered from phage library selection on this NCI-60 cell line)” value is listed as “T-47D Breast”.
On to SDENGRL, for which the “Cell Line with which the peptide” value is recorded as “HL-60-Leukemia”.
As to EAGVRLN, the “Cell Line (NCI-60 cell line the peptide and its motif are associated with)” value was “OVCAR-4 Ovarian”.
Still for that read-out and setting: the entry for PRLSDKS is “SK-MEL-28 Melanoma”; for YGALAGL it is “PC3 Prostate”.
For AGATRGS, the “Cell Line the peptide is associated with (peptide recovered from phage library selection on this NCI-60 cell line)” value is “HS 578 T Breast”.
For LVSVNGA, the “Cell Line (NCI-60 cell line the peptide is associated with)” value is given as “SNB-19 CNS; also recorded: SF-539 CNS”.
The same measure, in the same setting: the same measure for TRLGGLT: “SF-295 CNS”.
As for SSRMGLV, the “Cell Line with which the peptide” value is on record as “SR Leukemia”.
For the substance SHRSSTG, the “Cell Line the peptide is associated with (peptide recovered from phage library selection on this NCI-60 cell line)” value is on record as “T-47D Breast”.
For the substance SGWFAGS, the “Cell Line (NCI-60 cell line the peptide and its motif are associated with)” value is listed as “SK-OV-3-3 Ovarian”.
Regarding EGTSGSV, the “Cell Line (NCI-60 cell line the peptide is associated with)” value was “KM-12C Colon”.
Consider AAVGGRV, for which the “Cell Line (NCI-60 cell line the peptide and its motif are associated with)” value is “M14 Melanoma”.
With GGRSKKV, the “Cell Line (NCI-60 cell line the peptide is associated with)” value is recorded as “SF-268 CNS”.
For LVSGYNG, the “Cell Line with which the peptide” value is listed as “Hop-92-Lung”.
GRLWYVA: the “Cell Line (NCI-60 cell line the peptide and its motif are associated with)” value was “DU-145 Prostate”.
On the same count and under the same terms, the same measure for GLRVYEP: “PC3 Prostate”.
In the case of RSYPLRS, the “Cell Line (NCI-60 cell line the peptide is associated with)” value is given as “SW620-Colon”.
Take RRDGLVE: the “Cell Line (NCI-60 cell line the peptide and its motif are associated with)” value is given as 786-0 Renal.
For the substance LRVYGEG, the “Cell Line (NCI-60 cell line the peptide is associated with)” value was “SNB-75 CNS”.
With LRYWAAV, the “Cell Line (NCI-60 cell line the peptide and its motif are associated with)” value is given as “SK-MEL-2 Melanoma”.
With VRGGLTG, the “Cell Line (NCI-60 cell line the peptide is associated with)” value is on record as “HT-29 Colon”.
On to DWGSRGV, for which the “Cell Line the peptide is associated with (peptide recovered from phage library selection on this NCI-60 cell line)” value is on record as “MDA-MB-231 Breast”.
Take ARGSWRE: the “Cell Line the peptide is associated with (peptide recovered from phage library selection on this NCI-60 cell line)” value is “TK-10 Renal”.
Consider FHFGGSG, for which the “Cell Line (NCI-60 cell line the peptide and its motif are associated with)” value is “OVCAR-5 Ovarian”.
On to AEGGSGH, for which the “Cell Line with which the peptide” value is “A549-Lung”.
For the substance SVVGVST, the “Cell Line (NCI-60 cell line the peptide is associated with)” value is on record as “HCT-15 Colon”.
Regarding GLVRRVV, the “Cell Line the peptide is associated with (peptide recovered from phage library selection on this NCI-60 cell line)” value is given as “CAIK-1 Renal”.
Take GRVTVAV: the “Cell Line with which the peptide” value is reported as “A549-Lung”.
Same read-out and setting: the same measure for GGRSSHP: “Molt-4-Leukemia”; for FWRGSVP: “A549-Lung”.
For MLGSASL, the “Cell Line the peptide is associated with (peptide recovered from phage library selection on this NCI-60 cell line)” value is on record as “A498 Renal”.
Consider SRAVIRL, for which the “Cell Line (NCI-60 cell line the peptide and its motif are associated with)” value is “OVCAR-5 Ovarian”.
For SVLGSSL, the “Cell Line with which the peptide” value is recorded as “H460-Lung”.
GRYSLRS: the “Cell Line with which the peptide” value was “RPMI-8226-Leukemia”.
Turning to AAVWQMK, the “Cell Line (NCI-60 cell line the peptide is associated with)” value is listed as “SNB-19 CNS; also recorded: SF-539 CNS”.
For the substance VALGVSS, the “Cell Line the peptide is associated with (peptide recovered from phage library selection on this NCI-60 cell line)” value is on record as “T-47D Breast”.
WLLSARL: the “Cell Line (NCI-60 cell line the peptide is associated with)” value was “HCC-2998-Colon”.
Consider EVLWGGR, for which the “Cell Line (NCI-60 cell line the peptide is associated with)” value is “SF-268 CNS”.
For ALPGGGR, the “Cell Line (NCI-60 cell line the peptide and its motif are associated with)” value is on record as “OVCAR-5 Ovarian”.
In the case of SGSGCVF, the “Cell Line (NCI-60 cell line the peptide and its motif are associated with)” value is “PC3 Prostate”.
Consider FSGLVVA, for which the “Cell Line (NCI-60 cell line the peptide is associated with)” value is “HT-29 Colon”.
As to RGRGSTL, the “Cell Line the peptide is associated with (peptide recovered from phage library selection on this NCI-60 cell line)” value is on record as “MDA-MB-435-Breast”.
Same read-out and setting: the same measure for PEGGRRP: “SN12C Renal”; for VKGSSMR: “A498 Renal”.
As for GGFTGGL, the “Cell Line (NCI-60 cell line the peptide is associated with)” value is reported as “SF-295 CNS”.
As to LRSRLGF, the “Cell Line with which the peptide” value was “SR Leukemia”.
As to AGWRLSQ, the “Cell Line the peptide is associated with (peptide recovered from phage library selection on this NCI-60 cell line)” value was “CAIK-1 Renal”.
Take GRIRLSF: the “Cell Line the peptide is associated with (peptide recovered from phage library selection on this NCI-60 cell line)” value was “RXF393 Renal”.
Turning to LRSDPRS, the “Cell Line (NCI-60 cell line the peptide is associated with)” value was “HT-29 Colon”.
In the case of GGGLPVD, the “Cell Line the peptide is associated with (peptide recovered from phage library selection on this NCI-60 cell line)” value is on record as “MDA-MB-231 Breast”.
Take QDRVSRS: the “Cell Line with which the peptide” value is “Hop-92-Lung”.
The same measure, in the same setting: the same measure for GSARGML: “SR Leukemia”.
For the substance AIMGAGL, the “Cell Line (NCI-60 cell line the peptide and its motif are associated with)” value is “OVCAR-8 Ovarian”.
For SVYALRS, the “Cell Line (NCI-60 cell line the peptide is associated with)” value is recorded as “COLO-205-Colon”.
For the substance IGWGVLG, the “Cell Line the peptide is associated with (peptide recovered from phage library selection on this NCI-60 cell line)” value was “BT-549 Breast”.
Turning to LRLSGHD, the “Cell Line the peptide is associated with (peptide recovered from phage library selection on this NCI-60 cell line)” value is recorded as “NCI/ADR-RES Breast”.
Same read-out and setting: the entry for RKGSGTA is “BT-549 Breast”.
For SRFGPSV, the “Cell Line with which the peptide” value was “H322-Lung”.
Turning to WVGPSGG, the “Cell Line (NCI-60 cell line the peptide and its motif are associated with)” value is “SK-MEL-5 Melanoma”.
HKLARGR: the “Cell Line with which the peptide” value is listed as “EKVX-Lung”.
As for FGVLFRS, the “Cell Line with which the peptide” value is on record as “EKVX-Lung”.
Still for that read-out and setting: the same measure for GAVLFRV: “Hop-62-Lung”.
VRGSRWR: the “Cell Line (NCI-60 cell line the peptide is associated with)” value is given as “HT-29 Colon”.
LSAVSVK: the “Cell Line (NCI-60 cell line the peptide and its motif are associated with)” value is “SK-MEL-5 Melanoma”.
TRVSGSG: the “Cell Line the peptide is associated with (peptide recovered from phage library selection on this NCI-60 cell line)” value is “BT-549 Breast”.
With AGGRLGL, the “Cell Line (NCI-60 cell line the peptide is associated with)” value is “SF-268 CNS”.
As for AAGRAGC, the “Cell Line with which the peptide” value is “H322-Lung”.
Still for that read-out and setting: the entry for GRLWGFW is “H226-Lung”.
In the case of WLLRSWS, the “Cell Line the peptide is associated with (peptide recovered from phage library selection on this NCI-60 cell line)” value is given as “CAIK-1 Renal”.
Turning to QRSSDLT, the “Cell Line (NCI-60 cell line the peptide and its motif are associated with)” value is “M14 Melanoma”.
Turning to SVVLAGS, the “Cell Line (NCI-60 cell line the peptide is associated with)” value was “LOX-IMVI Melanoma”.
The same measure, in the same setting: the entry for AGSGFPF is “HT-29 Colon”.
Turning to ERVSAAV, the “Cell Line (NCI-60 cell line the peptide and its motif are associated with)” value is listed as “OVCAR-3 Ovarian”.
On the same count and under the same terms, the entry for DEGGSRW is “IGROV1 Ovarian”; for QLGGSFR it is “SK-MEL-28 Melanoma”.
Regarding SGGSVGF, the “Cell Line the peptide is associated with (peptide recovered from phage library selection on this NCI-60 cell line)” value is recorded as “MDA-MB-231 Breast”.
Regarding NVGGGRF, the “Cell Line the peptide is associated with (peptide recovered from phage library selection on this NCI-60 cell line)” value was “NCI/ADR-RES Breast”.
In the case of PTVSAGL, the “Cell Line the peptide is associated with (peptide recovered from phage library selection on this NCI-60 cell line)” value was “NCI/ADR-RES Breast”.
Turning to AAYWGPS, the “Cell Line the peptide is associated with (peptide recovered from phage library selection on this NCI-60 cell line)” value is recorded as “A498 Renal”.
For the substance RGGSDEA, the “Cell Line the peptide is associated with (peptide recovered from phage library selection on this NCI-60 cell line)” value was “BT-549 Breast”.
On to GVRRSLL, for which the “Cell Line (NCI-60 cell line the peptide is associated with)” value is “SNB-75 CNS”.
Consider RMLVSSF, for which the “Cell Line (NCI-60 cell line the peptide and its motif are associated with)” value was “UACC 257 Melanoma”.
